Laboratory results: the supplement of paper PMC10307832

How the values were obtained:
Assay in all cases: relative viability (nuclei count vs DMSO), 5 days (fraction); higher = more cells survive
[1] = compound: C1/C(=C\C2=CC=CS2)/C(=O)/C(=C/C3=CC=CS3)/C1 + COc1cccc2cc(-c3nc([C@H]4CC[C@H](C(=O)O)CC4)n4ncnc(N)c34)[nH]c12 [OSI-027] (partner 0.5 µM)
Procedure, shortened: (§1)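 A single step with final 0.05% Triton X-100, 1% formaldehyde and 1 ug/ml Hoechst fixed the cells and stained nuclei 5 days after treatment. Lung cancer cell lines in 1536-well plates had been treated by pin tool the day after seeding with one drug alone or a fixed anchor-drug dose plus five library-drug doses (not always all listed) in √10 steps, and nuclei were counted on 4× images. Relative viability is the ratio of nuclei in treated wells to nuclei in vehicle wells, taken as the median of duplicate plates.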

[2] = compound: C1/C(=C\C2=CC=CS2)/C(=O)/C(=C/C3=CC=CS3)/C1 + O=C(CCCCCCC(=O)Nc1ccccc1)NO [Vorinostat] (partner 1 µM)
Procedure, shortened: as §1

[3] = compound: C1=CC(=CC=C1C2=CC(=C(S2)NC(=O)N)C(=O)N)F [TPCA-1] + COc1cccc2cc(-c3nc([C@H]4CC[C@H](C(=O)O)CC4)n4ncnc(N)c34)[nH]c12 [OSI-027] (partner 0.5 µM)
Procedure, shortened: as §1

[4] = compound: C[C@]12O[C@H](C[C@]1(O)CO)n1c3ccccc3c3c4c(c5c6ccccc6n2c5c31)CNC4=O [Lestaurtinib] + Cc1nc(NC(=O)N2CCC[C@H]2C(N)=O)sc1-c1ccnc(C(C)(C)C(F)(F)F)c1 [Alpelisib] (partner 2 µM)
Procedure, shortened: as §1

Cell Line	relative viability ([1]; first compound 0.2 µM)	relative viability ([1]; first compound 0.6325 µM)	relative viability ([1]; first compound 2 µM)	relative viability ([1]; first compound 6.325 µM)	relative viability ([1]; first compound 20 µM)	relative viability ([2]; first compound 0.2 µM)	relative viability ([2]; first compound 0.6325 µM)	relative viability ([2]; first compound 2 µM)	relative viability ([2]; first compound 6.325 µM)	relative viability ([2]; first compound 20 µM)	relative viability ([3]; first compound 0.04 µM)	relative viability ([3]; first compound 0.1265 µM)	relative viability ([3]; first compound 0.4 µM)	relative viability ([3]; first compound 1.265 µM)	relative viability ([3]; first compound 4 µM)	relative viability ([4]; first compound 0.005 µM)	relative viability ([4]; first compound 0.01581 µM)	relative viability ([4]; first compound 0.05 µM)	relative viability ([4]; first compound 0.1581 µM)	relative viability ([4]; first compound 0.5 µM)
NCI-H1651	0.684	0.803	0.815	0.676	0.789	0.553	0.63	0.694	0.509	0.558	0.756	0.612	0.648	0.741	0.544	1.1	0.889	0.913	0.845	0.529
HCC-44	0.482	0.528	0.649	0.475	0.479	1.09	1.08	1.01	0.995	1.03	0.64	0.462	0.503		0.495	0.782	0.973	0.644	0.834	0.469
SW 1573	0.603	0.724	0.756	0.599	0.617	0.756	0.971	0.89	0.721	0.808	0.898	0.402	0.641	0.666	0.438	0.822	0.841	0.401	0.568	0.379
PC-3 [JPC-3]	0.774	0.715	0.719	0.552	0.778		0.985	0.954	0.74	1.03	0.83	0.702	0.73	0.654	0.615	1.03	1.1	0.985	0.913	0.65
LOU-NH91	0.733	0.722	0.769	0.648	0.714	1.03	0.934	1.01	0.782	0.973	0.75	0.662	0.735	0.793	0.73	0.757	0.666	0.623	0.472	0.416
PC-14	0.916	0.854	0.805	0.749	0.766	0.855	0.809	0.843	0.614	0.687	0.954	0.717	0.951	0.593	0.341	0.973	1.01	0.465	0.602	0.471
NCI-H2087	0.716	0.688	0.769	0.457	0.42	0.623	0.656	0.7	0.616	0.361	0.554	0.444	0.537	0.414	0.207	1.15	1.08	0.83	0.783	0.325
LU99A	0.329	0.286	0.33	0.322	0.291	0.461	0.475	0.462	0.441	0.387	0.325	0.297	0.322	0.232	0.258	0.413	0.488	0.233	0.283	0.192
BEN	0.258	0.275	0.352	0.288	0.282	0.64	0.537	0.661	0.566	0.535	0.261	0.269	0.303	0.346	0.242	1.09	1.31	0.852	0.722	0.446
SK-LU-1	0.36	0.388	0.398	0.315	0.396	0.849	0.764	0.75	0.677	0.774	0.4	0.317	0.312	0.248	0.234	0.652	0.613	0.436	0.536	0.258
NCI-H1975	0.944	0.689		0.661	0.739	0.814	0.671	0.774	0.689	0.731	0.836	0.737	0.676	0.633	0.295	0.658	0.644	0.372	0.347	0.212
RERF-LC-KJ	0.528	0.659	0.71	0.539	0.545	0.735	0.723	0.713	0.645	0.675	0.674	0.489	0.565	0.532	0.485	0.888	0.689	0.591	0.535	0.445
NCI-H441	0.795	0.661	0.548	0.602	0.596	0.863	0.676	0.683	0.743	0.78	0.841	0.443	0.511	0.302	0.201	0.584	0.687	0.416	0.421	0.289
LCLC-103H	0.466	0.464	0.603	0.502	0.426	0.805	0.842	0.859	0.698	0.765	0.458	0.44	0.485	0.443	0.387	1.06	0.991	0.678	0.683	0.651
HCC-78	0.372	0.404	0.431	0.37	0.326	0.51	0.401	0.441	0.425	0.385	0.411	0.357	0.385	0.335	0.337	0.349	0.328	0.334	0.246	0.226
NCI-H1915	0.636	0.632	0.657	0.249	0.681	0.568	0.546	0.551	0.433	0.528	0.695	0.563	0.676	0.509	0.467	1.06	1.05	1.04	0.761	0.376
